Test results taken from publication PMC8955712, “Rapid Mining of Novel α-Glucosidase and Lipase Inhibitors from Streptomyces sp. HO1518 Using UPLC-QTOF-MS/MS” (Marine Drugs, 2022).
Where two headings read alike, the source gives them in different places.

Assays:
Assay type in all cases: biochemical
[1] = biological target: T1, pancreatic lipase (PL) (Sus scrofa, UniProt P00591); test: PL (lipase) inhibition assay; details: read-out: IC50 Values Against PL
T1 construct: purchased Sigma Aldrich Co. (St Louis, MO, USA)
T1 sequence (P00591 1-450): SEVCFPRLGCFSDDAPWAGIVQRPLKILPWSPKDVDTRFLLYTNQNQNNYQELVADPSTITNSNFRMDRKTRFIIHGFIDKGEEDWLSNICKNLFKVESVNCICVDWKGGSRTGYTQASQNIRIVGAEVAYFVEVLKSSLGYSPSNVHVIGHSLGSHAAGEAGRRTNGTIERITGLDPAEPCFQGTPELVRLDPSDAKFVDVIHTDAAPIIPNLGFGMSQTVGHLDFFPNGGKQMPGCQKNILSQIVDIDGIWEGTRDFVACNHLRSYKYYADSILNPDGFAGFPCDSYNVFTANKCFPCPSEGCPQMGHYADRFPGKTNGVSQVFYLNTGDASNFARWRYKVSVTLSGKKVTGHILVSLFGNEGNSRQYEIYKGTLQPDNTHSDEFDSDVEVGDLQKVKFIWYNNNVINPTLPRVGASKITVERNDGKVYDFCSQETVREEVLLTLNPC
From the text: (§1) The HPLC-grade methanol and acetonitrile were purchased from CINC High Purity Solvents (Shanghai) Co., Ltd. (Shanghai, China). The other solvents were of analytical grade (Sinopharm Chemical Reagent Co., Ltd., Beijing, China). Porcine pancreatic α-amylase (PPA) and PL were purchased from Sigma Aldrich Co. (St Louis, MO, USA). […] Standards 1–9 were previously isolated from Streptomyces sp. HO1518 by our group.

[2] = biological target: sucrase; test: Sucrase inhibition assay; details: mean ± SD; acarbose positive control; read-out: IC50 Values Against Sucrase
From the text: The HPLC-grade methanol and acetonitrile were purchased from CINC High Purity Solvents (Shanghai) Co., Ltd. (Shanghai, China). The other solvents were of analytical grade (Sinopharm Chemical Reagent Co., Ltd., Beijing, China). Porcine pancreatic α-amylase (PPA) and PL were purchased from Sigma Aldrich Co. (St Louis, MO, USA). Sucrase and acarbose were obtained from Shanghai yuanye Bio-Technology Co., Ltd. (Shanghai, China). Orlistat was bought from Shanghai xushuo Bio-Technology Co., Ltd. (Shanghai, China). Standards 1–9 were previously isolated from Streptomyces sp. HO1518 by our group.
The sucrase inhibition assay of compounds 9–20 was evaluated according to the previously reported method.

[3] = biological target: T2, Porcine pancreatic α-amylase (PPA) (Sus scrofa, UniProt P00690); test: PPA inhibition assay; details: for IC50: read-out: IC50 Values Against PPA
T2 construct: purchased Sigma Aldrich Co. (St Louis, MO, USA)
T2 sequence (P00690 16-511): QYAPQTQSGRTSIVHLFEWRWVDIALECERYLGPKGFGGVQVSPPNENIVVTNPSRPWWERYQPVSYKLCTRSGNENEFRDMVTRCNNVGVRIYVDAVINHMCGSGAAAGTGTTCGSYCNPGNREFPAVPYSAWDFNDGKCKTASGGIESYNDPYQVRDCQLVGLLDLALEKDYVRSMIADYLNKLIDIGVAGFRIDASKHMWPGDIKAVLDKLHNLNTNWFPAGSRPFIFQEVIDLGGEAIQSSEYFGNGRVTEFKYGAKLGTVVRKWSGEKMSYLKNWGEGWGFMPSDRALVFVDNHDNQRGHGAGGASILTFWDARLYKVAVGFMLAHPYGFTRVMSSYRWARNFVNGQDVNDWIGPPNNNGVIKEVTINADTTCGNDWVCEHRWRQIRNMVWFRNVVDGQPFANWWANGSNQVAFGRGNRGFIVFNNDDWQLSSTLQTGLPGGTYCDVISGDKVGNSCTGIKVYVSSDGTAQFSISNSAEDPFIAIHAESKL
From the text: as §1

[4] = mean ± SD, orlistat positive control
[5] = mean ± SD, acarbose positive control

IC50 [1] [µM]	IC50 [2] [µM]	fold more effective than acarbose (α-amylase inhibition) ([3]; ratio of PPA IC50 values, acarbose vs compound) [fold]	IC50 [3] [µM]	IC50 [1, 4] [µM]	IC50 [3, 5] [µM]	SMILES
7.64 ± 0.13	17.2 ± 0.76	282	0.03 ± 0.001	–	–	CC1OC(OC2C(CO)OC(OC3C(CO)=CC(NC4C(C)OC(OC5C(CO)OC(OC6C(CO)OC(OC7C(CO)OC(OC8C(CO)OC(O)C(O)C8O)C(O)C7O)C(O)C6O)C(O)C5O)C(O)C4O)C(O)C3O)C(O)C2O)C(O)C(O)C1NC1C=C(CO)C(O)C(O)C1O (stereo not drawn) [Compound 9, acarviostatin II03]
12.7 ± 0.76	13.1 ± 0.55	–	0.084 ± 0.001	–	–	C[C@H]1O[C@H](O[C@H]2[C@H](O)[C@@H](O)[C@@H](O[C@H]3[C@H](O)[C@@H](O)[C@@H](O[C@H]4[C@H](O)[C@@H](O)C(O)O[C@@H]4CO)O[C@@H]3CO)O[C@@H]2CO)[C@H](O)[C@@H](O)[C@@H]1N[C@H]1C=C(CO)[C@@H](O[C@H]2O[C@H](CO)[C@@H](O[C@H]3O[C@H](C)[C@@H](N[C@H]4C=C(CO)[C@@H](O)[C@H](O)[C@H]4O)[C@H](O)[C@H]3O)[C@H](O)[C@H]2O)[C@H](O)[C@H]1O (stereo partly drawn) [Compound 10, Acarviostatin II02]
7.22 ± 0.1	4.34 ± 0.24	–	0.079 ± 0.001	–	–	CCC(=O)OC[C@H]1O[C@H](O[C@H]2[C@H](O)[C@@H](O)[C@@H](O[C@H]3[C@H](O)[C@@H](O)C(O)O[C@@H]3CO)O[C@@H]2CO)[C@H](O)[C@@H](O)[C@@H]1O[C@H]1O[C@H](C)[C@@H](N[C@H]2C=C(CO)[C@@H](O[C@H]3O[C@H](CO)[C@@H](O[C@H]4O[C@H](C)[C@@H](N[C@H]5C=C(CO)[C@@H](O)[C@H](O)[C@H]5O)[C@H](O)[C@H]4O)[C@H](O)[C@H]3O)[C@H](O)[C@H]2O)[C@H](O)[C@H]1O (stereo partly drawn) [Compound 11, D6-O-Propionyl-acarviostatin II02]
5.48 ± 0.18	6.79 ± 0.06	–	0.085 ± 0.006	–	–	CC(C)C(=O)OC[C@H]1O[C@H](O[C@H]2[C@H](O)[C@@H](O)[C@@H](O[C@H]3[C@H](O)[C@@H](O)C(O)O[C@@H]3CO)O[C@@H]2CO)[C@H](O)[C@@H](O)[C@@H]1O[C@H]1O[C@H](C)[C@@H](N[C@H]2C=C(CO)[C@@H](O[C@H]3O[C@H](CO)[C@@H](O[C@H]4O[C@H](C)[C@@H](N[C@H]5C=C(CO)[C@@H](O)[C@H](O)[C@H]5O)[C@H](O)[C@H]4O)[C@H](O)[C@H]3O)[C@H](O)[C@H]2O)[C@H](O)[C@H]1O (stereo partly drawn) [Compound 12, D6-O-Isobutyryl-acarviostatin II02]
1.56 ± 0.04	7.06 ± 0.09	–	0.092 ± 0.001	–	–	CC(C)CC(=O)OC[C@H]1O[C@H](O[C@H]2[C@H](O)[C@@H](O)[C@@H](O[C@H]3[C@H](O)[C@@H](O)C(O)O[C@@H]3CO)O[C@@H]2CO)[C@H](O)[C@@H](O)[C@@H]1O[C@H]1O[C@H](C)[C@@H](N[C@H]2C=C(CO)[C@@H](O[C@H]3O[C@H](CO)[C@@H](O[C@H]4O[C@H](C)[C@@H](N[C@H]5C=C(CO)[C@@H](O)[C@H](O)[C@H]5O)[C@H](O)[C@H]4O)[C@H](O)[C@H]3O)[C@H](O)[C@H]2O)[C@H](O)[C@H]1O (stereo partly drawn) [Compound 13, D6-O-Isovaleryl-acarviostatin II02]
–	2.56 ± 0.12	–	–	4.21 ± 0.03	0.035 ± 0.001	CCC(=O)OC[C@H]1O[C@H](O[C@H]2[C@H](O)[C@@H](O)[C@@H](O[C@H]3[C@H](O)[C@@H](O)[C@@H](O[C@H]4[C@H](O)[C@@H](O)C(O)O[C@@H]4CO)O[C@@H]3CO)O[C@@H]2CO)[C@H](O)[C@@H](O)[C@@H]1O[C@H]1O[C@H](C)[C@@H](N[C@H]2C=C(CO)[C@@H](O[C@H]3O[C@H](CO)[C@@H](O[C@H]4O[C@H](C)[C@@H](N[C@H]5C=C(CO)[C@@H](O)[C@H](O)[C@H]5O)[C@H](O)[C@H]4O)[C@H](O)[C@H]3O)[C@H](O)[C@H]2O)[C@H](O)[C@H]1O (stereo partly drawn) [Compound 14, D6-O-Propionyl-acarviostatin II03]
–	10.7 ± 2.6	–	–	4.46 ± 0.14	0.059 ± 0.007	CCCC(=O)OC[C@H]1O[C@H](O[C@H]2[C@H](O)[C@@H](O)[C@@H](O[C@H]3[C@H](O)[C@@H](O)[C@@H](O[C@H]4[C@H](O)[C@@H](O)C(O)O[C@@H]4CO)O[C@@H]3CO)O[C@@H]2CO)[C@H](O)[C@@H](O)[C@@H]1O[C@H]1O[C@H](C)[C@@H](N[C@H]2C=C(CO)[C@@H](O[C@H]3O[C@H](CO)[C@@H](O[C@H]4O[C@H](C)[C@@H](N[C@H]5C=C(CO)[C@@H](O)[C@H](O)[C@H]5O)[C@H](O)[C@H]4O)[C@H](O)[C@H]3O)[C@H](O)[C@H]2O)[C@H](O)[C@H]1O (stereo partly drawn) [Compound 15, D6-O-Butyryl-acarviostatin II03]
–	7.28 ± 0.1	–	–	1.34 ± 0.03	0.052 ± 0.003	CCC(C)C(=O)OC[C@H]1O[C@H](O[C@H]2[C@H](O)[C@@H](O)[C@@H](O[C@H]3[C@H](O)[C@@H](O)[C@@H](O[C@H]4[C@H](O)[C@@H](O)C(O)O[C@@H]4CO)O[C@@H]3CO)O[C@@H]2CO)[C@H](O)[C@@H](O)[C@@H]1O[C@H]1O[C@H](C)[C@@H](N[C@H]2C=C(CO)[C@@H](O[C@H]3O[C@H](CO)[C@@H](O[C@H]4O[C@H](C)[C@@H](N[C@H]5C=C(CO)[C@@H](O)[C@H](O)[C@H]5O)[C@H](O)[C@H]4O)[C@H](O)[C@H]3O)[C@H](O)[C@H]2O)[C@H](O)[C@H]1O (stereo partly drawn) [Compound 16, D6-O-2-Methyl-butyryl-acarviostatin II03]
31.6 ± 4.13	11.1 ± 0.24	–	0.296 ± 0.007	–	–	C[C@H]1O[C@H](O[C@H]2[C@H](O)[C@@H](O)[C@@H](O[C@H]3[C@H](O)[C@@H](O)[C@@H](O[C@H]4[C@H](O)[C@@H](O)[C@@H](O[C@H]5[C@H](O)[C@@H](O)C(O)O[C@@H]5CO)O[C@@H]4CO)O[C@@H]3CO)O[C@@H]2CO)[C@H](O)[C@@H](O)[C@@H]1N[C@H]1C=C(CO)[C@@H](O)[C@H](O)[C@H]1O (stereo partly drawn) [Compound 17, acarviostatin I03]
11.7 ± 2.52	3.8 ± 0.78	–	0.402 ± 0.008	–	–	CCCC(=O)OC[C@H]1O[C@H](O[C@H]2[C@H](O)[C@@H](O)[C@@H](O[C@H]3[C@H](O)[C@@H](O)[C@@H](O[C@H]4[C@H](O)[C@@H](O)C(O)O[C@@H]4CO)O[C@@H]3CO)O[C@@H]2CO)[C@H](O)[C@@H](O)[C@@H]1O[C@H]1O[C@H](C)[C@@H](N[C@H]2C=C(CO)[C@@H](O)[C@H](O)[C@H]2O)[C@H](O)[C@H]1O (stereo partly drawn) [Compound 18, Bu-Aca I03]
–	9.67 ± 0.1	–	–	1 ± 0.12	0.061 ± 0.005	CC(O)CC(=O)OC[C@H]1O[C@H](O[C@H]2[C@H](O)[C@@H](O)[C@@H](O[C@H]3[C@H](O)[C@@H](O)[C@@H](O[C@H]4[C@H](O)[C@@H](O)C(O)O[C@@H]4CO)O[C@@H]3CO)O[C@@H]2CO)[C@H](O)[C@@H](O)[C@@H]1O[C@H]1O[C@H](C)[C@@H](N[C@H]2C=C(CO)[C@@H](O[C@H]3O[C@H](CO)[C@@H](O[C@H]4O[C@H](C)[C@@H](N[C@H]5C=C(CO)[C@@H](O)[C@H](O)[C@H]5O)[C@H](O)[C@H]4O)[C@H](O)[C@H]3O)[C@H](O)[C@H]2O)[C@H](O)[C@H]1O (stereo partly drawn) [Compound 19, Hbu-Aca II03]
–	9.93 ± 0.5	–	–	1.43 ± 0.08	0.08 ± 0.003	CC(C)CC(=O)OC[C@H]1O[C@H](O[C@H]2[C@H](O)[C@@H](O)[C@@H](O[C@H]3[C@H](O)[C@@H](O)[C@@H](O[C@H]4[C@H](O)[C@@H](O)C(O)O[C@@H]4CO)O[C@@H]3CO)O[C@@H]2CO)[C@H](O)[C@@H](O)[C@@H]1O[C@H]1O[C@H](C)[C@@H](N[C@H]2C=C(CO)[C@@H](O[C@H]3O[C@H](CO)[C@@H](O[C@H]4O[C@H](C)[C@@H](N[C@H]5C=C(CO)[C@@H](O)[C@H](O)[C@H]5O)[C@H](O)[C@H]4O)[C@H](O)[C@H]3O)[C@H](O)[C@H]2O)[C@H](O)[C@H]1O (stereo partly drawn) [Compound 20, isoVa-Aca II03]
191 ± 15.2	2.34 ± 0.23	–	–	–	–	C[C@H]1O[C@H](O[C@H]2[C@H](O)[C@@H](O)[C@@H](O[C@H]3[C@H](O)[C@@H](O)C(O)O[C@@H]3CO)O[C@@H]2CO)[C@H](O)[C@@H](O)[C@@H]1N[C@H]1C=C(CO)[C@@H](O)[C@H](O)[C@H]1O (stereo partly drawn) [acarbose, reference compound]
